What is called IC50 is the concentration at which inhibition is half-maximal. Higher therefore signals a need for much substance.

29 compounds from US12673944B2, “Compounds having inhibitory activity against glucosylceramide synthase or pharmaceutically acceptable salt thereof, processes for preparing the same, and pharmaceutical compositions comprising the same” (YUHAN CORPORATION, priority 2019, dated 2026) can be followed below.

Test [1] concerns GM1 production in Jurkat cells. Put plainly: cells. It is filed as cell-based.
For test [2], the target named is T1, glucosylceramide synthase (GCS) (Homo sapiens, UniProt Q16739).
T1 construct: The obtained supernatant was used; host or cells: A549 cells (lysate supernatant after sonication)
T1 sequence (Q16739 1-394): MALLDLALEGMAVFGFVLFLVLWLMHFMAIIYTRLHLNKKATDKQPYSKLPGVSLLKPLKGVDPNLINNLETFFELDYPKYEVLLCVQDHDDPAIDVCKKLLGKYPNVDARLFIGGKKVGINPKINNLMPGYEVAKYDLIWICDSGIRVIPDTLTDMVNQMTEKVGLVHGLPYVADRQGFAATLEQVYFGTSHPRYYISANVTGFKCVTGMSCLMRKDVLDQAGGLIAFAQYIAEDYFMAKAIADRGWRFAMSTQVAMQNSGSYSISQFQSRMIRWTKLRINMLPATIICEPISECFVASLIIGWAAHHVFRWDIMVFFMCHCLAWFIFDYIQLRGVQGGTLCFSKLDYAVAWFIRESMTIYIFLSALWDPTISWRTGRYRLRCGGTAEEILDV
Put plainly: GCS enzyme inhibition assay (A549 cell lysate, NBD C6-ceramide, HPLC fluorescence). In kind it is biochemical. Conditions: inhibitory activity against GCS, 37° C., 90 minutes. In short, it runs like this:
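Percent GCS activity was derived from the GlcCer share of Cer plus GlcCer areas, scaled from ibiglustat (0%) to DMSO (100%). Enzyme came from sonicated A549 lysate in 50 mM HEPES pH 7.3; 90 min incubation at 37° C, chloroform/methanol stop and extraction.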

SMILES strings stand for the structures. Where two headings read alike, the source gives them in different places.

As for `CC1(C)COc2cc(-c3cccc(C#N)c3)ccc2C1NC(=O)O[C@@H]1CN2CCC1CC2` (stereo partly drawn) [Example 170, (S)-quinuclidin-3-yl (7-(3-cyanophenyl)-3,3-dimethylchroman-4-yl)carbamate], the IC50 was found to be 5.83 nM in test [1] (Homo sapiens, Jurkat, 72 h) and 0.42 nM in test [2].
For `CN(C)c1cc(-c2ccc3c(c2)OCC(C)(C)C3NC(=O)O[C@@H]2CN3CCC2CC3)ccc1F` (stereo partly drawn) [Example 171, (S)-quinuclidin-3-yl (7-(3-(dimethylamino)-4-fluorophenyl)-3,3-dimethylchroman-4-yl)carbamate], in that order: 5.23 nM and 0.79 nM.
In the same order, the values of `CC1(C)COc2cc(-c3ccc4c(c3)OCCO4)ccc2C1NC(=O)O[C@@H]1CN2CCC1CC2` (stereo partly drawn) [Example 172, (S)-quinuclidin-3-yl (7-(2,3-dihydrobenzo[b][1,4]dioxin-6-yl)-3,3-dimethylchroman-4-yl)carbamate] are 1.92 nM and 0.37 nM.
For `CC1(C)COc2cc(-c3cccc4cc[nH]c34)ccc2C1NC(=O)O[C@@H]1CN2CCC1CC2` (stereo partly drawn) [Example 173, (S)-quinuclidin-3-yl (7-(1H-indol-7-yl)-3,3-dimethylchroman-4-yl)carbamate], in that order: 2.95 nM and 1.17 nM.
For `CC(C)c1ccc(-c2ccc3c(c2)OCC(C)(C)C3NC(=O)O[C@@H]2CN3CCC2CC3)cc1` (stereo partly drawn) [Example 174, (S)-quinuclidin-3-yl (7-(4-isopropylphenyl)-3,3-dimethylchroman-4-yl)carbamate], the IC50 turned out to be 1.37 nM in test [1] (Homo sapiens, Jurkat, 72 h) and 0.35 nM in test [2].
For `CC1(C)COc2cc(-c3ccc(F)c(C(F)(F)F)c3)ccc2C1NC(=O)O[C@@H]1CN2CCC1CC2` (stereo partly drawn) [Example 175, (S)-quinuclidin-3-yl (7-(4-fluoro-3-(trifluoromethyl)phenyl)-3,3-dimethylchroman-4-yl)carbamate], in that order: 2.2 nM and 0.71 nM.
For `COc1cccc(-c2ccc3c(c2)OCC(C)(C)C3NC(=O)O[C@@H]2CN3CCC2CC3)c1Cl` (stereo partly drawn) [Example 176, (S)-quinuclidin-3-yl (7-(2-chloro-3-methoxyphenyl)-3,3-dimethylchroman-4-yl)carbamate], in that order: 3.2 nM and 0.59 nM.
In the same order, the values of `COc1cc(-c2ccc3c(c2)OCC(C)(C)C3NC(=O)O[C@@H]2CN3CCC2CC3)ccc1Cl` (stereo partly drawn) [Example 177, (S)-quinuclidin-3-yl (7-(4-chloro-3-methoxyphenyl)-3,3-dimethylchroman-4-yl)carbamate] are 9.73 nM and 1.39 nM.
`CC1(C)COc2cc(-c3cccc4cn[nH]c34)ccc2C1NC(=O)O[C@@H]1CN2CCC1CC2` (stereo partly drawn) [Example 178, (S)-quinuclidin-3-yl (7-(1H-indazol-7-yl)-3,3-dimethylchroman-4-yl)carbamate]: the IC50 in test [1] (Homo sapiens, Jurkat, 72 h) was 4.36 nM; in test [2], 1.14 nM.
For `CC1(C)COc2cc(-c3cc(Cl)cc(Cl)c3)ccc2C1NC(=O)O[C@@H]1CN2CCC1CC2` (stereo partly drawn) [Example 179, (S)-quinuclidin-3-yl (7-(3,5-dichlorophenyl)-3,3-dimethylchroman-4-yl)carbamate], in that order: 4.42 nM and 1.31 nM.
For `CC1(C)COc2cc(-c3cnn(Cc4ccccc4)c3)ccc2C1NC(=O)O[C@@H]1CN2CCC1CC2` (stereo partly drawn) [Example 180, (S)-quinuclidin-3-yl (7-(1-benzyl-1H-pyrazol-4-yl)-3,3-dimethylchroman-4-yl)carbamate], in that order: 3.42 nM and 0.44 nM.
In the same order, the values of `CC1(C)COc2cc(-c3ccc4c(c3)CCO4)ccc2C1NC(=O)O[C@@H]1CN2CCC1CC2` (stereo partly drawn) [Example 181, (S)-quinuclidin-3-yl (7-(2,3-dihydrobenzofuran-5-yl)-3,3-dimethylchroman-4-yl)carbamate] are 5.55 nM and 0.5 nM.
With `CC1(C)COc2cc(-c3ccc(OCC4CC4)nc3)ccc2C1NC(=O)O[C@@H]1CN2CCC1CC2` (stereo partly drawn) [Example 182, (S)-quinuclidin-3-yl (7-(6-(cyclopropylmethoxy)pyridin-3-yl)-3,3-dimethylchroman-4-yl)carbamate], the half-inhibitory concentration (IC50) turned out to be 0.79 nM in test [1] (Homo sapiens, Jurkat, 72 h) and 0.25 nM in test [2].
For `CC1(C)COc2cc(-c3cc4ccccc4o3)ccc2C1NC(=O)O[C@@H]1CN2CCC1CC2` (stereo partly drawn) [Example 183, (S)-quinuclidin-3-yl (7-(benzofuran-2-yl)-3,3-dimethylchroman-4-yl)carbamate], in that order: 6.43 nM and 1.22 nM.
For `CC1(C)COc2cc(-c3cccc(S(=O)(=O)N4CCCC4)c3)ccc2C1NC(=O)O[C@@H]1CN2CCC1CC2` (stereo partly drawn) [Example 184, (S)-quinuclidin-3-yl (3,3-dimethyl-7-(3-(pyrrolidin-1-ylsulfonyl)phenyl)chroman-4-yl)carbamate], in that order: 4.16 nM and 0.91 nM.
In the case of `CC1(C)COc2cc(-c3ccccc3C(F)(F)F)ccc2C1NC(=O)O[C@@H]1CN2CCC1CC2` (stereo partly drawn) [Example 185, (S)-quinuclidin-3-yl (3,3-dimethyl-7-(2-(trifluoromethyl)phenyl)chroman-4-yl)carbamate], the concentration for half-maximal inhibition (IC50) stood at 0.98 nM in test [1] (Homo sapiens, Jurkat, 72 h) and 0.67 nM in test [2].
For `CCOc1ccccc1-c1ccc2c(c1)OCC(C)(C)C2NC(=O)O[C@@H]1CN2CCC1CC2` (stereo partly drawn) [Example 186, (S)-quinuclidin-3-yl (7-(2-ethoxyphenyl)-3,3-dimethylchroman-4-yl)carbamate], in that order: 2.81 nM and 0.38 nM.
In the same order, the values of `CC1(C)COc2cc(-c3ccsc3)ccc2C1NC(=O)O[C@@H]1CN2CCC1CC2` (stereo partly drawn) [Example 187, (S)-quinuclidin-3-yl (3,3-dimethyl-7-(thiophen-3-yl)chroman-4-yl)carbamate] are 2.06 nM and 0.32 nM.
With `COc1ccc(-c2ccc3c(c2)OCC(C)(C)C3NC(=O)O[C@@H]2CN3CCC2CC3)cc1C(F)(F)F` (stereo partly drawn) [Example 188, (S)-quinuclidin-3-yl (7-(4-methoxy-3-(trifluoromethyl)phenyl)-3,3-dimethylchroman-4-yl)carbamate], the IC50 was 4.59 nM in test [1] and 0.75 nM in test [2].
With `CC1(C)COc2cc(-c3ccccc3C#N)ccc2C1NC(=O)O[C@@H]1CN2CCC1CC2` (stereo partly drawn) [Example 189, (S)-quinuclidin-3-yl (7-(2-cyanophenyl)-3,3-dimethylchroman-4-yl)carbamate], the IC50 in test [1] (Homo sapiens, Jurkat, 72 h) came out at 0.04 nM; in test [2], 0.36 nM.
In the same order, the values of `CC1(C)COc2cc(-c3ccc4c(c3)OCCCO4)ccc2C1NC(=O)O[C@@H]1CN2CCC1CC2` (stereo partly drawn) [Example 190, (S)-quinuclidin-3-yl (7-(3,4-dihydro-2H-benzo[b][1,4]dioxepin-7-yl)-3,3-dimethylchroman-4-yl)carbamate] are 0.03 nM and 0.29 nM.
As for `CC1(C)COc2cc(-c3ccc4nsnc4c3)ccc2C1NC(=O)O[C@@H]1CN2CCC1CC2` (stereo partly drawn) [Example 191, (S)-quinuclidin-3-yl (7-(benzo[c][1,2,5]thiadiazol-5-yl)-3,3-dimethylchroman-4-yl)carbamate], the IC50 in test [1] (Homo sapiens, Jurkat, 72 h) was found to be 0.31 nM; in test [2], 0.63 nM.
Take `CC1(C)COc2cc(-c3cncc4ccccc34)ccc2C1NC(=O)O[C@@H]1CN2CCC1CC2` (stereo partly drawn) [Example 192, (S)-quinuclidin-3-yl (7-(isoquinolin-4-yl)-3,3-dimethylchroman-4-yl)carbamate]: the IC50 was 1.35 nM in test [1] and 0.92 nM in test [2].
For `CC(C)(C)c1ccc(-c2ccc3c(c2)OCC(C)(C)C3NC(=O)O[C@@H]2CN3CCC2CC3)cc1` (stereo partly drawn) [Example 193, (S)-quinuclidin-3-yl (7-(4-(tert-butyl)phenyl)-3,3-dimethylchroman-4-yl)carbamate], the IC50 in test [1] (Homo sapiens, Jurkat, 72 h) was 0.46 nM; in test [2] it was 0.51 nM.
In the same order, the values of `Cc1cc(-c2ccc3c(c2)OCC(C)(C)C3NC(=O)O[C@@H]2CN3CCC2CC3)ccc1N1CCOCC1` (stereo partly drawn) [Example 194, (S)-quinuclidin-3-yl (3,3-dimethyl-7-(3-methyl-4-morpholinophenyl)chroman-4-yl)carbamate] are 1.81 nM and 0.6 nM.
In the same order, the values of `CC1(C)COc2cc(-c3ccc(Cl)c(Cl)c3)ccc2C1NC(=O)O[C@@H]1CN2CCC1CC2` (stereo partly drawn) [Example 195, (S)-quinuclidin-3-yl (7-(3,4-dichlorophenyl)-3,3-dimethylchroman-4-yl)carbamate] are 1.39 nM and 1.14 nM.
In the case of `Cn1ncc2ccc(-c3ccc4c(c3)OCC(C)(C)C4NC(=O)O[C@@H]3CN4CCC3CC4)cc21` (stereo partly drawn) [Example 196, (S)-quinuclidin-3-yl (3,3-dimethyl-7-(1-methyl-1H-indazol-6-yl)chroman-4-yl)carbamate], the IC50 in test [1] (Homo sapiens, Jurkat, 72 h) is 6.13 nM; in test [2] it was 1.25 nM.
Turning to `CC1(C)COc2cc(-c3ccc4cc[nH]c4c3)ccc2C1NC(=O)O[C@@H]1CN2CCC1CC2` (stereo partly drawn) [Example 197, (S)-quinuclidin-3-yl (7-(1H-indol-6-yl)-3,3-dimethylchroman-4-yl)carbamate], the IC50 in test [1] (Homo sapiens, Jurkat, 72 h) worked out at 1.99 nM; in test [2], 0.9 nM.
In the same order, the values of `CN1CCOc2cc(-c3ccc4c(c3)OCC(C)(C)C4NC(=O)O[C@@H]3CN4CCC3CC4)ccc21` (stereo partly drawn) [Example 198, (S)-quinuclidin-3-yl (3,3-dimethyl-7-(4-methyl-3,4-dihydro-2H-benzo[b][1,4]oxazin-7-yl)chroman-4-yl)carbamate] are 1.83 nM and 0.66 nM.
